Laboratory results: patent publication US12240853B2, “Compounds useful in HIV therapy” (GlaxoSmithKline Intellectual Property (No.2) Limited, priority 2019, dated 2025)
Read-outs that look alike come from different tables or passages of the source.

Assay: Example 18 cynomolgus monkey PK study (SC and IM)
Assay type: in vivo, cynomolgus monkeys
Excerpt: Example 18 referenced herein was made in accordance with Synthesis B. Six male cynomolgus monkeys (+1 spare) were selected from the Testing Facility's colony of non-naïve animals. The animals were assigned to the study based on acceptable health as determined by a Testing Facility veterinarian. Six animals were selected and placed into two groups of three animals each. Fasting of the animals before or after dosing was not required.
[…] […] The animals were manually restrained for dosing and were not sedated. The dose sites were clipped of hair and wiped with alcohol before dosing. All dosing was performed as detailed in the study protocol and was completed without incident.
Blood samples were collected from the study animals as detailed in the sample collection Table 39 below.
Blood samples were collected by venipuncture of a cephalic vein. For PK, blood was transferred to a blood collection tube containing NaF/Na2EDTA anticoagulant, mixed by inversion, and maintained on wet ice until processing. The blood samples were centrifuged at 2200×g for 10 minutes at 5° C. to isolate plasma. The resulting plasma samples were transferred to individual polypropylene tubes in a 96-well plate format and immediately placed on dry ice until storage at nominally −20° C. prior to shipment for analysis.
The PK plasma samples were analyzed approximately every two weeks by the Testing Facility to determine the concentration of Example 18 (prodrug) and parent using an LC-MS/MS Research Grade Assay (RGA-1) with sensitivity to 0.1 ng/mL. Following interim review of sample analysis data, analysis for Example 18 (prodrug) was discontinued after the Day 57 sample collections. The bioanalytical report and sample concentration data are presented in Tables 40 and 41, and mean concentration-time profiles are shown in FIGS. 29 and 30

C#C[C@]1(COC(=O)CCCCCCCCC)O[C@@H](n2cnc3c(N)nc(F)nc32)C[C@@H]1OC(=O)CCCCCCCCC [Example 18, (2R,3S,5R)-5-(6-amino-2-fluoro-9H-purin-9-yl)-2-((decanoyloxy)methyl)-2-ethynyltetrahydrofuran-3-yl Decanoate]
Example 18 plasma concentrations (IM EFdA, Monkey 2001, 43 days): BQL (BQL—Below Quantitation Limit, <0.100 ng/mL) | Example 18 plasma concentrations (IM EFdA, Monkey 2001, 57 days): BQL (BQL—Below Quantitation Limit, <0.100 ng/mL) | EFdA plasma concentrations (IM EFdA, Monkey 2002, 0.021 days): BQL (BQL—Below Quantitation Limit, <0.100 ng/mL) | Example 18 plasma concentrations (IM EFdA, Monkey 2002, 36 days): BQL (BQL—Below Quantitation Limit, <0.100 ng/mL) | Example 18 plasma concentrations (IM EFdA, Monkey 2002, 39 days): BQL (BQL—Below Quantitation Limit, <0.100 ng/mL) | Example 18 plasma concentrations (IM EFdA, Monkey 2002, 46 days): BQL (BQL—Below Quantitation Limit, <0.100 ng/mL) | Example 18 plasma concentrations (IM EFdA, Monkey 2002, 50 days): BQL (BQL—Below Quantitation Limit, <0.100 ng/mL) | Example 18 plasma concentrations (IM EFdA, Monkey 2003, 29 days): BQL (BQL—Below Quantitation Limit, <0.100 ng/mL) | Example 18 plasma concentrations (IM EFdA, Monkey 2003, 53 days): BQL (BQL—Below Quantitation Limit, <0.100 ng/mL) | Example 18 plasma concentrations (IM equivalent of EFdA, Monkey 2001, 25 days): BQL (BQL—Below Quantitation Limit, <0.100 ng/mL) | Example 18 plasma concentrations (IM equivalent of EFdA, Monkey 2001, 32 days): BQL (BQL—Below Quantitation Limit, <0.100 ng/mL) | Example 18 plasma concentrations (IM equivalent of EFdA, Monkey 2001, 39 days): BQL (BQL—Below Quantitation Limit, <0.100 ng/mL) | Example 18 plasma concentrations (IM equivalent of EFdA, Monkey 2001, 53 days): BQL (BQL—Below Quantitation Limit, <0.100 ng/mL) | Example 18 plasma concentrations (IM equivalent of EFdA, Monkey 2002, 32 days): BQL (BQL—Below Quantitation Limit, <0.100 ng/mL) | Example 18 plasma concentrations (IM equivalent of EFdA, Monkey 2002, 57 days): BQL (BQL—Below Quantitation Limit, <0.100 ng/mL) | EFdA plasma concentrations (IM equivalent of EFdA, Monkey 2003, 0.021 days): BQL (BQL—Below Quantitation Limit, <0.100 ng/mL) | Example 18 plasma concentrations (IM equivalent of EFdA, Monkey 2003, 32 days): BQL (BQL—Below Quantitation Limit, <0.100 ng/mL) | Example 18 plasma concentrations (IM equivalent of EFdA, Monkey 2003, 39 days): BQL (BQL—Below Quantitation Limit, <0.100 ng/mL) | Example 18 plasma concentrations (IM equivalent of EFdA, Monkey 2003, 50 days): BQL (BQL—Below Quantitation Limit, <0.100 ng/mL) | Example 18 plasma concentrations (IM equivalent of EFdA, Monkey 2003, 57 days): BQL (BQL—Below Quantitation Limit, <0.100 ng/mL) | Example 18 plasma concentrations (IM, Monkey 2001, 36 days): BQL (BQL—Below Quantitation Limit, <0.100 ng/mL) | Example 18 plasma concentrations (IM, Monkey 2001, 46 days): BQL (BQL—Below Quantitation Limit, <0.100 ng/mL) | Example 18 plasma concentrations (IM, Monkey 2001, 50 days): BQL (BQL—Below Quantitation Limit, <0.100 ng/mL) | Example 18 plasma concentrations (IM, Monkey 2002, 43 days): BQL (BQL—Below Quantitation Limit, <0.100 ng/mL) | Example 18 plasma concentrations (IM, Monkey 2002, 53 days): BQL (BQL—Below Quantitation Limit, <0.100 ng/mL) | Example 18 plasma concentrations (IM, Monkey 2003, 36 days): BQL (BQL—Below Quantitation Limit, <0.100 ng/mL) | Example 18 plasma concentrations (IM, Monkey 2003, 43 days): BQL (BQL—Below Quantitation Limit, <0.100 ng/mL) | Example 18 plasma concentrations (SC EFdA, Monkey 1001, 22 days): BQL (BQL—Below Quantitation Limit, <0.100 ng/mL) | Example 18 plasma concentrations (SC EFdA, Monkey 1001, 29 days): BQL (BQL—Below Quantitation Limit, <0.100 ng/mL) | Example 18 plasma concentrations (SC EFdA, Monkey 1001, 43 days): BQL (BQL—Below Quantitation Limit, <0.100 ng/mL) | Example 18 plasma concentrations (SC EFdA, Monkey 1001, 46 days): BQL (BQL—Below Quantitation Limit, <0.100 ng/mL) | Example 18 plasma concentrations (SC EFdA, Monkey 1001, 53 days): BQL (BQL—Below Quantitation Limit, <0.100 ng/mL) | EFdA plasma concentrations (SC EFdA, Monkey 1002, 0.021 days): BQL (BQL—Below Quantitation Limit, <0.100 ng/mL) | Example 18 plasma concentrations (SC EFdA, Monkey 1002, 29 days): BQL (BQL—Below Quantitation Limit, <0.100 ng/mL) | Example 18 plasma concentrations (SC EFdA, Monkey 1002, 43 days): BQL (BQL—Below Quantitation Limit, <0.100 ng/mL) | Example 18 plasma concentrations (SC equivalent of EFdA, Monkey 1001, 8 days): BQL (BQL—Below Quantitation Limit, <0.100 ng/mL) | Example 18 plasma concentrations (SC equivalent of EFdA, Monkey 1001, 17 days): BQL (BQL—Below Quantitation Limit, <0.100 ng/mL) | Example 18 plasma concentrations (SC equivalent of EFdA, Monkey 1001, 19 days): BQL (BQL—Below Quantitation Limit, <0.100 ng/mL) | Example 18 plasma concentrations (SC equivalent of EFdA, Monkey 1001, 32 days): BQL (BQL—Below Quantitation Limit, <0.100 ng/mL) | Example 18 plasma concentrations (SC equivalent of EFdA, Monkey 1001, 36 days): BQL (BQL—Below Quantitation Limit, <0.100 ng/mL) | Example 18 plasma concentrations (SC equivalent of EFdA, Monkey 1001, 39 days): BQL (BQL—Below Quantitation Limit, <0.100 ng/mL) | Example 18 plasma concentrations (SC equivalent of EFdA, Monkey 1001, 50 days): BQL (BQL—Below Quantitation Limit, <0.100 ng/mL) | EFdA plasma concentrations (SC equivalent of EFdA, Monkey 1002, 0.042 days): BQL (BQL—Below Quantitation Limit, <0.100 ng/mL) | Example 18 plasma concentrations (SC equivalent of EFdA, Monkey 1002, 22 days): BQL (BQL—Below Quantitation Limit, <0.100 ng/mL) | Example 18 plasma concentrations (SC equivalent of EFdA, Monkey 1002, 32 days): BQL (BQL—Below Quantitation Limit, <0.100 ng/mL) | Example 18 plasma concentrations (SC equivalent of EFdA, Monkey 1002, 39 days): BQL (BQL—Below Quantitation Limit, <0.100 ng/mL) | Example 18 plasma concentrations (SC equivalent of EFdA, Monkey 1002, 50 days): BQL (BQL—Below Quantitation Limit, <0.100 ng/mL) | Example 18 plasma concentrations (SC equivalent of EFdA, Monkey 1002, 53 days): BQL (BQL—Below Quantitation Limit, <0.100 ng/mL) | Example 18 plasma concentrations (SC equivalent of EFdA, Monkey 1002, 57 days): BQL (BQL—Below Quantitation Limit, <0.100 ng/mL) | EFdA plasma concentrations (SC equivalent of EFdA, Monkey 1003, 0.021 days): BQL (BQL—Below Quantitation Limit, <0.100 ng/mL) | EFdA plasma concentrations (SC, Mean, 0.021 days): BQL (BQL—Below Quantitation Limit, <0.100 ng/mL) | Example 18 plasma concentrations (SC, Mean, 17 days): BQL (BQL—Below Quantitation Limit, <0.100 ng/mL) | EFdA plasma concentrations (SC, Monkey 1001, 0.021 days): BQL (BQL—Below Quantitation Limit, <0.100 ng/mL) | Example 18 plasma concentrations (SC, Monkey 1001, 25 days): BQL (BQL—Below Quantitation Limit, <0.100 ng/mL) | Example 18 plasma concentrations (SC, Monkey 1001, 57 days): BQL (BQL—Below Quantitation Limit, <0.100 ng/mL) | Example 18 plasma concentrations (SC, Monkey 1002, 17 days): BQL (BQL—Below Quantitation Limit, <0.100 ng/mL) | Example 18 plasma concentrations (SC, Monkey 1002, 19 days): BQL (BQL—Below Quantitation Limit, <0.100 ng/mL) | Example 18 plasma concentrations (SC, Monkey 1002, 25 days): BQL (BQL—Below Quantitation Limit, <0.100 ng/mL) | Example 18 plasma concentrations (SC, Monkey 1002, 36 days): BQL (BQL—Below Quantitation Limit, <0.100 ng/mL) | Example 18 plasma concentrations (SC, Monkey 1002, 46 days): BQL (BQL—Below Quantitation Limit, <0.100 ng/mL) | EFdA plasma concentrations (SC, Monkey 1003, 0.042 days): BQL (BQL—Below Quantitation Limit, <0.100 ng/mL) | Clinical observations and dose site reactions (cynomolgus monkey, single SC or IM injection, 5 mg parent/kg): All animals appeared normal at the time of each observation and no dose site reactions were observed | concentration at 0.021 days (male, cynomolgus monkey, plasma, intramuscular, 20 mg/kg equivalent of EFdA, IM 20 mg/kg equivalent of EFdA, Mean, 0.021 days, read-out: Example 18 plasma concentrations): 11.9 ng/mL | concentration at 0.042 days (male, cynomolgus monkey, plasma, intramuscular, 20 mg/kg equivalent of EFdA, IM 20 mg/kg equivalent of EFdA, Mean, 0.042 days, read-out: Example 18 plasma concentrations): 15 ng/mL | concentration at 0.125 days (male, cynomolgus monkey, plasma, intramuscular, 20 mg/kg equivalent of EFdA, IM 20 mg/kg equivalent of EFdA, Mean, read-out: Example 18 plasma concentrations): 28.5 ng/mL | concentration at 0.208 days (male, cynomolgus monkey, plasma, intramuscular, 20 mg/kg equivalent of EFdA, IM 20 mg/kg equivalent of EFdA, Mean, 0.208 days, read-out: Example 18 plasma concentrations): 28.3 ng/mL | concentration at 0.292 days (male, cynomolgus monkey, plasma, intramuscular, 20 mg/kg equivalent of EFdA, IM 20 mg/kg equivalent of EFdA, Mean, 0.292 days, read-out: Example 18 plasma concentrations): 18.3 ng/mL | concentration at 1 days (male, cynomolgus monkey, plasma, intramuscular, 20 mg/kg equivalent of EFdA, IM 20 mg/kg equivalent of EFdA, Mean, 1 days, read-out: Example 18 plasma concentrations): 4.49 ng/mL | concentration at 2 days (male, cynomolgus monkey, plasma, intramuscular, 20 mg/kg equivalent of EFdA, IM 20 mg/kg equivalent of EFdA, Mean, 2 days, read-out: Example 18 plasma concentrations): 0.52 ng/mL | concentration at 3 days (male, cynomolgus monkey, plasma, intramuscular, 20 mg/kg equivalent of EFdA, IM 20 mg/kg equivalent of EFdA, Mean, 3 days, read-out: Example 18 plasma concentrations): 0.505 ng/mL | concentration at 8 days (male, cynomolgus monkey, plasma, intramuscular, 20 mg/kg equivalent of EFdA, IM 20 mg/kg equivalent of EFdA, Mean, 8 days, read-out: Example 18 plasma concentrations): 0.187 ng/mL | concentration at 10 days (male, cynomolgus monkey, plasma, intramuscular, 20 mg/kg equivalent of EFdA, IM 20 mg/kg equivalent of EFdA, Mean, 10 days, read-out: Example 18 plasma concentrations): 0.173 ng/mL | concentration at 17 days (male, cynomolgus monkey, plasma, intramuscular, 20 mg/kg equivalent of EFdA, IM 20 mg/kg equivalent of EFdA, Mean, 17 days, read-out: Example 18 plasma concentrations): 0.145 ng/mL | concentration at 19 days (male, cynomolgus monkey, plasma, intramuscular, 20 mg/kg equivalent of EFdA, IM 20 mg/kg equivalent of EFdA, Mean, 19 days, read-out: Example 18 plasma concentrations): 0.124 ng/mL | concentration at 22 days (male, cynomolgus monkey, plasma, intramuscular, 20 mg/kg equivalent of EFdA, IM 20 mg/kg equivalent of EFdA, Mean, 22 days, read-out: Example 18 plasma concentrations): 0.13 ng/mL | concentration at 25 days (male, cynomolgus monkey, plasma, intramuscular, 20 mg/kg equivalent of EFdA, IM 20 mg/kg equivalent of EFdA, Mean, 25 days, read-out: Example 18 plasma concentrations): 0.151 ng/mL | concentration at 0.021 days (male, cynomolgus monkey, plasma, intramuscular, 20 mg/kg equivalent of EFdA, IM 20 mg/kg equivalent of EFdA, Monkey 2001, 0.021 days, read-out: Example 18 plasma concentrations): 21.8 ng/mL | concentration at 0.042 days (male, cynomolgus monkey, plasma, intramuscular, 20 mg/kg equivalent of EFdA, IM 20 mg/kg equivalent of EFdA, Monkey 2001, 0.042 days, read-out: Example 18 plasma concentrations): 29.2 ng/mL | concentration at 0.125 days (male, cynomolgus monkey, plasma, intramuscular, 20 mg/kg equivalent of EFdA, IM 20 mg/kg equivalent of EFdA, Monkey 2001, read-out: Example 18 plasma concentrations): 53.7 ng/mL
